“Also recorded” adds a separate entry of the source. Where two headings read alike, the source gives them in different places.

Data set [1] relates to primary cultured spinal cord dorsal horn neurons. As to the kind of experiment: Dendritic spine density in primary cultured neurons with PAK1 inhibitor. Format: cell-based. The note with it: PAK1 inhibitor treatment; FIG. 11. The method, then: To assess whether PAK1 inhibition would disrupt dendritic spines, a morphological correlate of spasticity, the effect of a non-pharmaceutical grade PAK1 inhibitor, IPA3, on primary cultured spinal cord dorsal horn neurons was measured using previous methods (Tan et al., 2011).

For data set [2] the following is noted: cited from earlier work.
A further data set concerns humans. The settings on record: human, in vivo; cited from earlier work.
The target in a further data set is PAK1 (Homo sapiens, UniProt Q13153). The note with it: cited from earlier work.
Chain of PAK1 (Q13153 whole entry): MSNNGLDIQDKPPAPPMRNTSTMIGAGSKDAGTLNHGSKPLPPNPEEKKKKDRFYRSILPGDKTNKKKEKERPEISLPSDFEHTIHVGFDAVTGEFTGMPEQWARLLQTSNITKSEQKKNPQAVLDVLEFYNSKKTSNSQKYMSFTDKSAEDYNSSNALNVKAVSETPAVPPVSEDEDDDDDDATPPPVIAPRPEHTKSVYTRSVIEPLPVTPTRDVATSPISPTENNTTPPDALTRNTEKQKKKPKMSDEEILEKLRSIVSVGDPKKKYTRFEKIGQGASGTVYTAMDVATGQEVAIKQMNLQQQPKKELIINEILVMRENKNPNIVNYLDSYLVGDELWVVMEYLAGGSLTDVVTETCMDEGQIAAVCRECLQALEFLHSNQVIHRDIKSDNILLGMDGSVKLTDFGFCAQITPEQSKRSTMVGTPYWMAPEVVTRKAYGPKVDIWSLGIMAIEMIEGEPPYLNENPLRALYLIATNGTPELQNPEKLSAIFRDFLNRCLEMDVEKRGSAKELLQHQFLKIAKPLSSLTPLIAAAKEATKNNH
For the next data set, the system named is SCI-induced spasticity. As to the kind of experiment: Evoked H-reflex EMG recordings (rate-dependent depression) in SCI spasticity model. Type of data set: in vivo, mouse. On the procedure: (§1) As detailed elsewhere herein, the feasibility of “repurposing” a clinically approved drug to address spasticity in SCI will be evaluated. Here, testing the efficacy of romidepsin, an FDA-approved drug, to reduce PAK1 activity in the spinal cord and SCI-induced spasticity has begun. […] Initial test dosages were calculated from human trial data using FDA guidelines for converting drug dosage from human to animal.
Study Design: Four animal groups were prepared (adult m/f mix; 6-8 weeks old; n=60/group); 1) Sham+DMSO/vehicle, 2) Sham+Romidepsin, 3) SCI+DMSO/vehicle, and 4) SCI+Romidepsin. […]
H-reflex electrophysiology-EMG recordings of evoked H-reflex will be performed in the plantar muscle group (Bandaru et al., 2015; Benson et al., 2017; Boulenguez et al., 2010; Nielsen et al., 2007). […] Three trials (10 sweeps/trial) will be recorded for each paired-pulse. Rectified traces will be analyzed. […] The H/M ratio will be calculated using the peak amplitude of M-wave and H-reflex following the test pulse. H-reflex EMG studies provide specific readout only of the monosynaptic circuit, and is therefore an accurate measure of the spinal stretch reflex response without the confounds of supraspinal, interneuronal, or other motor neuron sub-type input (Nielsen et al., 2007).

The nature of data set [3]: Maximum tolerated dose in SCI mouse model (weight loss, paw grip-strength, mobility). Type of data set: in vivo. The settings on record: mouse, in vivo; once/day for 3 days; 10 μl per IP injection; diluted in 1% DMSO. The method, then: as §1
(§2) Vehicle (1% DMSO) was used as a control treatment.

A further data set relates to SCI mouse model. The description is as above. Format: in vivo. On the procedure:
as §1, §2

In data set [4] the test system is acetyl histone-H3. The note with it: injected intraperitoneally; within 24-hours post-administration; dorsal horn L4 (Guo et al., 2018); FIG. 25; cited from earlier work.
The subject of data set [5] is acetyl histone-H3. Type of data set: in vivo, mouse. The note with it: vs control treated animal tissues; FIG. 17. The method, then: as §1
To monitor in vivo drug-response using established clinical biomarkers from all animals before and after treatment with romidepsin, histone acetylation was assessed in spinal cord tissue, peripheral blood mononuclear cells (PBMCs), and monocytes from CSF (i.e., ELISA pharmacodynamics assessment) (Cotto et al., 2010); VanderMolen et al., 2011). Liquid samples were collected using routine blood or spinal CSF draws.
(§3) To monitor in vivo drug-response using established clinical biomarkers from all animals before and after intrathecal treatment with romidepsin at MTD, histone acetylation in peripheral blood mononuclear cells (PBMCs) or lymphocytes/monocytes in CSF (i.e., ELISA pharmacodynamics assessment) will be assessed (Cotto et al., 2010; VanderMolen et al., 2011). […]

The next data set deals with p-Raf. As to the kind of experiment: p-Raf expression in spinal cord neurons (histological analysis). Type of data set: in vivo, mouse. The settings on record: spinal cord after SCI; FIG. 16.
Text: Outcome Measures: On days 14, 28, and 35 post-SCI, spinal cord and brain tissue were collected for histological analyses. Tissue was processed using SWITCH clearing and immunohistochemistry performed to analyze protein expression levels of inflammatory markers, i.e., GFAP/OX42 for astro/microgliosis, cfos, p38, p-Raf, or PAK1 activity (Stamboulian et al., 2010); Tan et al., 2011; Tan et al., 2008). Because mice are Thy1-GFP transgenic animals, α-motor neurons were identified using established morphological criteria, including soma size and topographical location (Bandaru et al., 2015; Tan et al., 2012a). GFP-expressing dendritic spines were visualized, and their morphology profiled in association with spasticity. All data was statistically compared across groups (Bandaru et al., 2015; Zhao et al., 2016). To determine the efficacy of romidepsin treatments on SCI-induced spasticity, anatomical and biochemical data were correlated with spasticity outcomes. […]
as §3

Data set [6] has as its system nerve injury-induced chronic pain. In words: Spared nerve injury (SNI) pain model, mechanical-evoked pain. Type of data set: in vivo. The note with it: mouse SNI, IP once/day for 5 days at 0.25 mg/kg, FIG. 27. An excerpt:
An SNI is a transection-type peripheral nerve injury model, whereby a portion of the sciatic nerve innervating the hindlimb is ligated and cut. In this nerve injury model, the common peroneal and tibial nerves are injured, producing consistent and reproducible pain hypersensitivity in the cutaneous territory of the spared sural nerve. Additionally, the SNI leads to prolonged mechanical and thermal hyperresponsiveness in behavioral studies, which closely mimic clinically-described neuropathic pain conditions (Cichon et al., 2018). With an SNI, adult mice rapidly develop maximal neuropathic pain sensitivity within 3 days post-SNI (Benson et al., 2020; Cichon et al., 2018).
To evaluate the efficacy of romidepsin in treating nerve-induced chronic pain, the following comparator groups were prepared (weight-matched, adult male/female equally mixed C57BL/6 mice): Sham (n=5), SNI+Vehicle (n=5), and SNI+romidepsin (n=5). Romidepsin was administered as an intraperitoneal (IP) injection for five consecutive days after SNI (once/day for 5 days: 5 μl per injection at 0.25 mg/kg). Vehicle administration route was the same as romidepsin (1% diluted in DMSO; IP route), and sham animals underwent all procedures except for nerve injury.

In a further data set the test system is adult mice. The settings on record: mouse, in vivo.

Protocol for adult mice: Rationale for Dosing: These initial romidepsin dosages were determined on two interrelated rationales. […] 2) Because it is expected that the utility of romidepsin for pain mitigation would likely require longer-term use than for the oncology indication, a pilot study in mice was performed with a lower dose of romidepsin for a prolonged period of time (once daily injections up to 14 days).

On to `Oc1ccc2ccccc2c1SSc1c(O)ccc2ccccc12` [IPA3], for which the dendritic spine density entry in [1] is on record as “decreases”.

Consider `C/C=C1\NC(=O)[C@H]2CSSCC/C=C/[C@H](CC(=O)N[C@H](C(C)C)C(=O)N2)OC(=O)[C@H](C(C)C)NC1=O` [romidepsin], for which, in data set [2] (administered systemically in non-human primates or rodents/rats, drug and active metabolites), the “blood brain barrier (BBB) penetration” value is reported as “can passively penetrate through the blood brain barrier (BBB) in relatively low concentrations”. For the same compound, in data set [2] (depending on the organism (Berg et al., 2004)), the half-life is < 10 h. Moreover, the half-life in data set [2] (published PK/PD studies (Berg et al., 2004)) is < 10 h. In data set [2] (published human PK/PD studies (Berg et al., 2004)), the half-life was < 10 h. In the data set on humans, the “occurrence of adverse reactions (grade 3 or 4) related to weight loss and fatigue” value was 2-8%. For the same compound, on PAK1 (Hirokawa et al., 2005, Maruta, 2011), the “concentrations that significantly reduce PAK1 kinase activity” value is 0.1 to 1 nM. Also, the PAK1 protein level result on PAK1 (at 0.1-1 nM) is given as “without changing”. Further, the “RDD of H-reflex (spasticity)” value in the data set on SCI-induced spasticity (SCI animals vs vehicle control, preliminary EMG studies, FIG. 13) is on record as “partially restored RDD; also recorded: partial reduction in spasticity”. In addition, the “RDD of H-reflex (H/M ratio)” value in the data set with SCI-induced spasticity (SCI mice, IP injection at 0.25 mg/kg vs control vehicle, FIG. 15, 0.25 mg/kg) was “significant restoration of rate-dependent depression (RDD)”. The maximal tolerated dose (MTD) at 3 days in data set [3] amounted to 1.25 mg/kg. For the same compound, the “maximum tolerated dose (MTD)” value with SCI mouse model (SCI mouse model, once/day IP injection over 3 days, 0.1 ml) is given as 1.25 mg/kg/injection. Also, in the data set on SCI mouse model (mouse, in vivo), the body weight entry was “does not affect” and the paw-grip strength entry is on record as “does not affect”. The “histone acetylation in neurons” value in the data set with acetyl histone-H3 [4] was “upregulation of histone acetylation in neurons; also recorded: upregulation in acetyl histone-H3 in neurons”. In addition, the “H3 density in spinal cord tissues” value in the data set with acetyl histone-H3 [5] was “significant increase in H3 density”. The “expression of p-Raf on Thy-YFP expressing cells (neurons)” value in the data set on p-Raf is “significantly decreases”. Further, the mechanical-evoked pain result in [6] was “significant decrease in mechanical-evoked pain; also recorded: significantly decreases mechanical-evoked pain”. Further, in the data set with adult mice, the “adverse effects (ambulation, body mass loss, outward signs of toxicity)” value is given as “no observable adverse effects” and the food intake result is given as “appeared the same”.

The values are drawn from patent US20240335503A1, “ROMIDEPSIN AS A THERAPEUTIC AGENT FOR NERVE-INJURY INDUCED NEUROPATHIC PAIN AND SPASTICITY” (The United States Government as represented by the …, priority 2021, published 2024).
